Laboratory results taken from patent publication US8785430B2, “Compound that can inhibit UBC13-UEV interactions, pharmaceutical compositions and therapeutic uses” (Consejo Superior de Investigaciones Cientificas, priority 2006, dated 2014).

Target: T1, UBC13-UEV1 (Homo sapiens, UniProt P61088)
T1 construct: GST (N); made in house; host or cells: Escherichia coli BL21
T1 sequence (P61088 1-152): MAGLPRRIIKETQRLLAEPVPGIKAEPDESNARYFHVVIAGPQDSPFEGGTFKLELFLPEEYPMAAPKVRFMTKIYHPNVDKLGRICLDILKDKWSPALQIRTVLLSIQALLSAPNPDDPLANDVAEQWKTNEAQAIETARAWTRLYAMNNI
Assay: In vitro free polyubiquitin chain formation assay
Type: biochemical
Experimental: As described in the Background, K63 type polyubiquitylation catalyzed by UBC13-UEV1 requires the interaction between both subunits of the heterodimer. […] In this assay, the formation of polyubiquitin chains in reactions containing 0.1 μM of E1 enzyme (Boston Biochem), 0.2 μM of UBC13, 0.2 μM of UEV1 (produced as described in Example 4), 117 μM of wild-type ubiquitin (Biomol UW8795) or mutated in all the lysines except the lysine in position 63 (ubiquitin K63) or in position 48 (ubiquitin K48; Boston Biochem), is allowed in a reaction buffer with 50 mM of Tris-HC at pH 7.6, 5 mM of MgCl2 and 0.5 mM of dithiothreitol. For the treatments with compound Ia (Varubin), UBC13 was pre-incubated for 10 minutes at room temperature with 100 μM of the compound before being added to the reaction. The reaction was initiated by means of adding 2 mM of ATP, and it was performed by means of incubating at 37° C. at different times, being stopped by means of adding Laemmli buffer (250 mM Tris-HCl, 10% SDS, 500 mM DTT, 0.5% bromophenol blue and 50% glycerol at pH 6.8) and boiling for 3 minutes. The samples were separated electrophoretically in polyacrylamide-SDS gels and transferred electrophoretically to PVDF membranes.

NC(=O)CN(CCc1ccccn1)C(=O)C1CC(=O)N(CCc2ccc(F)cc2)CC(=O)N1CCc1ccc(F)cc1 (stereo not drawn) [Ia, N-aminocarbamoylmethyl-N-(2′-(2″pyridyl)ethyl)-1,4-bis[2′-(4″-fluorophenyl)ethyl]-3,7-dioxo-[1,4]diazepane-5-carboxamide]
type of inhibition of the enzymatic activity of UBC13-UEV1 (100 μM, slopes of the curves): competitive type
inhibition of polyubiquitylation with ubiquitin K63 as substrate (100 μM, ubiquitin K63): efficiency similar to when the substrate is wild-type ubiquitin
rate of generation of polyubiquitylated forms (UBC13 pre-incubated with 100 μM, wild-type ubiquitin): lower rate of generation of polyubiquitylated forms
